# In patent publication US7371766B2, “Curcumin analogs with anti-tumor and anti-angiogenic properties” (Emory University, priority 1999, dated 2008):
# Where two headings read alike, the source gives them in different places.
# What was measured:
# IGROV1 = test: cells; settings: Homo sapiens, IGROV-1, 48 h; for GI50: read-out: Median Growth Inhibitory Concentration (GI50); for CC50: read-out: Median Lethal Concentration (LC50)
# TK-10 = test: cells; settings: Homo sapiens, TK-10, 48 h; for GI50: read-out: Median Growth Inhibitory Concentration (GI50); for CC50: read-out: Median Lethal Concentration (LC50)
# M14 = test: cells; settings: Homo sapiens, M14, 48 h; for GI50: read-out: Median Growth Inhibitory Concentration (GI50); for CC50: read-out: Median Lethal Concentration (LC50)
# SN12C = test: cells; settings: Homo sapiens, 48 h; for GI50: read-out: Median Growth Inhibitory Concentration (GI50); for CC50: read-out: Median Lethal Concentration (LC50)
# MDA-N = test: cells; settings: Homo sapiens, 48 h; for GI50: read-out: Median Growth Inhibitory Concentration (GI50); for CC50: read-out: Median Lethal Concentration (LC50)
# MDA-MB-435 = test: cells; settings: Homo sapiens, MDA-MB-435, 48 h; for GI50: read-out: Median Growth Inhibitory Concentration (GI50); for CC50: read-out: Median Lethal Concentration (LC50)
# HCT-116 = test: cells; settings: Homo sapiens, HCT-116, 48 h; for GI50: read-out: Median Growth Inhibitory Concentration (GI50); for CC50: read-out: Median Lethal Concentration (LC50)
# CAKI-1 = test: cells; settings: Homo sapiens, CAKI-1, 48 h; for GI50: read-out: Median Growth Inhibitory Concentration (GI50); for CC50: read-out: Median Lethal Concentration (LC50)
# BT-549 = test: cells; settings: Homo sapiens, BT-549, 48 h; for GI50: read-out: Median Growth Inhibitory Concentration (GI50); for CC50: read-out: Median Lethal Concentration (LC50)
# HCT-15 = test: cells; settings: Homo sapiens, HCT-15, 48 h; for GI50: read-out: Median Growth Inhibitory Concentration (GI50); for CC50: read-out: Median Lethal Concentration (LC50)
# RXF 393 = test: cells; settings: Homo sapiens, RXF 393, 48 h; for GI50: read-out: Median Growth Inhibitory Concentration (GI50); for CC50: read-out: Median Lethal Concentration (LC50)
# SW-620 = test: cells; settings: Homo sapiens, SW-620, 48 h; for GI50: read-out: Median Growth Inhibitory Concentration (GI50); for CC50: read-out: Median Lethal Concentration (LC50)
# RPMI-7951 human melanoma = test: Neutral Red Assay, cell viability, RPMI-7951; settings: Homo sapiens
# MALME-3M = test: cells; settings: Homo sapiens, 48 h; for GI50: read-out: Median Growth Inhibitory Concentration (GI50); for CC50: read-out: Median Lethal Concentration (LC50)
# U251 = test: cells; settings: Homo sapiens, U-251, 48 h; for GI50: read-out: Median Growth Inhibitory Concentration (GI50); for CC50: read-out: Median Lethal Concentration (LC50)
# [1] = system: Sixty human tumor cell lines; test: cells; settings: 48 h; for GI50: read-out: Median Growth Inhibitory Concentration (GI50), Mean; for CC50: read-out: Median Lethal Concentration (LC50), Mean
# EKVX = test: cells; settings: Homo sapiens, 48 h; for GI50: read-out: Median Growth Inhibitory Concentration (GI50); for CC50: read-out: Median Lethal Concentration (LC50)
# DU-145 = test: cells; settings: Homo sapiens, DU-145, 48 h; for GI50: read-out: Median Growth Inhibitory Concentration (GI50); for CC50: read-out: Median Lethal Concentration (LC50)
# MCF-7 = test: cells; settings: Homo sapiens, MCF7, 48 h; for GI50: read-out: Median Growth Inhibitory Concentration (GI50); for CC50: read-out: Median Lethal Concentration (LC50)
# OVCAR-5 = test: cells; settings: Homo sapiens, OVCAR-5, 48 h; for GI50: read-out: Median Growth Inhibitory Concentration (GI50); for CC50: read-out: Median Lethal Concentration (LC50)
# OVCAR-8 = test: cells; settings: Homo sapiens, OVCAR-8, 48 h; for GI50: read-out: Median Growth Inhibitory Concentration (GI50); for CC50: read-out: Median Lethal Concentration (LC50)
# T-47D = test: cells; settings: Homo sapiens, T47D, 48 h; for GI50: read-out: Median Growth Inhibitory Concentration (GI50); for CC50: read-out: Median Lethal Concentration (LC50)
# SNB-75 = test: cells; settings: Homo sapiens, SNB-75, 48 h; for GI50: read-out: Median Growth Inhibitory Concentration (GI50); for CC50: read-out: Median Lethal Concentration (LC50)
# NCI-H460 = test: cells; settings: Homo sapiens, NCI-H460, 48 h; for GI50: read-out: Median Growth Inhibitory Concentration (GI50); for CC50: read-out: Median Lethal Concentration (LC50)
# UACC-257 = test: cells; settings: Homo sapiens, UACC-257, 48 h; for GI50: read-out: Median Growth Inhibitory Concentration (GI50); for CC50: read-out: Median Lethal Concentration (LC50)
# NCI/ADR-RES = test: cells; settings: Homo sapiens, 48 h; for GI50: read-out: Median Growth Inhibitory Concentration (GI50); for CC50: read-out: Median Lethal Concentration (LC50)
# SF-539 = test: cells; settings: Homo sapiens, SF-539, 48 h; for GI50: read-out: Median Growth Inhibitory Concentration (GI50); for CC50: read-out: Median Lethal Concentration (LC50)
# UACC-62 = test: cells; settings: Homo sapiens, UACC-62, 48 h; for GI50: read-out: Median Growth Inhibitory Concentration (GI50); for CC50: read-out: Median Lethal Concentration (LC50)
# [2] = RPMI-7951, read-out: Cell Viability
# [3] = RPMI-7951, 72 h, read-out: Neutral Red Uptake, %
smiles,measurement,setting,value
CC1(/C=C/c2ccccc2O)C=Cc2ccccc2O1 (centres unmarked) [EF7],GI50,IGROV1,15.9 µM
same,CC50,IGROV1,60.9 µM
same,GI50,TK-10,17.4 µM
same,CC50,TK-10,55.9 µM
same,GI50,M14,15.7 µM
same,CC50,M14,54 µM
same,GI50,SN12C,15.2 µM
same,CC50,SN12C,54.4 µM
same,GI50,MDA-N,16.1 µM
same,CC50,MDA-N,56.9 µM
same,GI50,MDA-MB-435,17.5 µM
same,CC50,MDA-MB-435,56 µM
same,GI50,HCT-116,17.6 µM
same,CC50,HCT-116,57.6 µM
same,GI50,CAKI-1,14.3 µM
same,CC50,CAKI-1,52.3 µM
same,GI50,BT-549,17.1 µM
same,CC50,BT-549,56.8 µM
same,GI50,HCT-15,17.2 µM
same,CC50,HCT-15,68.9 µM
same,GI50,RXF 393,11 µM
same,CC50,RXF 393,49.2 µM
same,GI50,SW-620,16.2 µM
same,CC50,SW-620,65.9 µM
same,viability at 20 µM,RPMI-7951 human melanoma; [2],78%
same,GI50,MALME-3M,17.5 µM
same,CC50,MALME-3M,68.8 µM
same,GI50,U251,16.1 µM
same,CC50,U251,54.4 µM
same,GI50,[1],15.8 µM
same,CC50,[1],61.7 µM
same,GI50,EKVX,17.3 µM
same,CC50,EKVX,56.6 µM
same,GI50,DU-145,16.4 µM
same,CC50,DU-145,54.8 µM
same,GI50,MCF-7,18 µM
same,CC50,MCF-7,65.9 µM
same,GI50,OVCAR-5,16.7 µM
same,CC50,OVCAR-5,58.4 µM
same,GI50,OVCAR-8,17 µM
same,CC50,OVCAR-8,86.4 µM
same,GI50,T-47D,7.7 µM
same,CC50,T-47D,55.4 µM
same,GI50,SNB-75,11.8 µM
same,CC50,SNB-75,49 µM
same,GI50,NCI-H460,17.6 µM
same,CC50,NCI-H460,66.8 µM
same,GI50,UACC-257,16.9 µM
same,CC50,UACC-257,55.2 µM
same,GI50,NCI/ADR-RES,19.3 µM
same,CC50,NCI/ADR-RES,> 100 µM
same,GI50,SF-539,17.3 µM
same,CC50,SF-539,55.7 µM
same,GI50,UACC-62,12.2 µM
same,CC50,UACC-62,49.6 µM
COc1cc(/C=C/C(=O)CC(=O)/C=C/c2ccc(O)c(OC)c2)ccc1O [Curcumin],GI50,IGROV1,7.9 µM
same,CC50,IGROV1,79.4 µM
same,GI50,TK-10,15.8 µM
same,CC50,TK-10,63.1 µM
same,GI50,M14,4 µM
same,CC50,M14,50.1 µM
same,GI50,SN12C,7.9 µM
same,CC50,SN12C,63.1 µM
same,GI50,MDA-N,2.5 µM
same,CC50,MDA-N,31.6 µM
same,GI50,MDA-MB-435,3.2 µM
same,CC50,MDA-MB-435,39.8 µM
same,GI50,HCT-116,3.2 µM
same,CC50,HCT-116,50.1 µM
same,GI50,CAKI-1,12.6 µM
same,CC50,CAKI-1,50.1 µM
same,GI50,BT-549,5 µM
same,CC50,BT-549,39.8 µM
same,GI50,HCT-15,4 µM
same,CC50,HCT-15,79.4 µM
same,GI50,RXF 393,3.2 µM
same,CC50,RXF 393,50.1 µM
same,GI50,SW-620,4 µM
same,CC50,SW-620,79.4 µM
same,viability at 5 µM,RPMI-7951 human melanoma; [3],100%
same,viability at 20 µM,RPMI-7951 human melanoma; [3],14%
same,viability at 5 µM,RPMI-7951 human melanoma; [2],105%
same,viability at 20 µM,RPMI-7951 human melanoma; [2],47%
same,GI50,MALME-3M,12.6 µM
same,CC50,MALME-3M,50.1 µM
same,GI50,U251,5 µM
same,CC50,U251,50.1 µM
same,GI50,[1],6.7 µM
same,CC50,[1],66 µM
same,GI50,EKVX,15.8 µM
same,CC50,EKVX,79.4 µM
same,GI50,DU-145,15.8 µM
same,CC50,DU-145,63.1 µM
same,GI50,MCF-7,3.2 µM
same,CC50,MCF-7,< 100 µM
same,GI50,OVCAR-5,15.8 µM
same,CC50,OVCAR-5,79.4 µM
same,GI50,OVCAR-8,7.9 µM
same,CC50,OVCAR-8,79.4 µM
same,GI50,T-47D,7.9 µM
same,CC50,T-47D,< 100 µM
same,GI50,SNB-75,6.3 µM
same,CC50,SNB-75,50.1 µM
same,GI50,NCI-H460,7.9 µM
same,CC50,NCI-H460,63.1 µM
same,GI50,UACC-257,12.6 µM
same,CC50,UACC-257,50.1 µM
same,GI50,NCI/ADR-RES,7.9 µM
same,CC50,NCI/ADR-RES,< 100 µM
same,GI50,SF-539,3.2 µM
same,CC50,SF-539,31.6 µM
same,GI50,UACC-62,6.3 µM
same,CC50,UACC-62,50.1 µM
